Patent US20230165980A1, “METHODS FOR RADIOLABELING PSMA BINDING LIGANDS AND THEIR KITS” (Novartis AG, priority 2020, published 2023)

Experiment: Radiochemical purity and radiochemical stability of ^68GaPSMA-11 by HPLC
Type: physicochemical
Details: for [^68Ga] Gallium PSMA-11 (sum of stereosiomers), HPLC / [^68Ga] Gallium free, HPLC / [^68Ga] Gallium main degradant, HPLC: t0 h
Protocol: Radiochemical Purity and Identification of ^68GaPSMA-11 by HPLC
Chromatographic Conditions
Radical Scavenger to be used for the improvement of the radiochemical stability of ^68Ga-PSMA-11, tests were performed according to a varied approach in order to consider all the parameters that may affect the radiochemical purity of the product (activity, pH, volume, amount of Gentisic Acid).
Stability tests were performed on the freeze dried product containing the final formulation. […] Kits manufactured with the final formulation, indeed, were stored at different stability conditions (2-8° C.; 25° C. and 40° C.) and were tested at different time points for API-assay, Radiochemical Purity and Radiochemical Stability of the radiolabelled product. Radiochemical Purity and Stability were assessed only eluting IRE Generator which represented the most stressful condition in terms of Radioactive Concentration (Volumic Activity).

[1] = Gentisic Acid 0 μg, IRE 17.19 mCi, 1 mL, pH 5.24
[2] = Gentisic Acid 200 μg, IRE 17.85 mCi, 1 mL, pH 5.22
[3] = Gentisic Acid 200 μg, IRE 18.07 mCi, 1 mL, pH 5.25
[4] = Gentisic Acid 200 μg, ITG 35.92 mCi, 4 mL, pH 4.83
[5] = Gentisic Acid 400 μg, IRE 17.44 mCi, 1 mL, pH 5.13
[6] = Gentisic Acid 400 μg, IRE 17.79 mCi, 1 mL, pH 5.11
[7] = Gentisic Acid 400 μg, ITG 16.9 mCi, 4 mL, pH 4.85
[8] = Gentisic Acid 400 μg, ITG 31.97 mCi, 4 mL, pH 4.81
[9] = Gentisic Acid 1000 μg, E&Z 15.65 mCi, 5 mL, pH 3.75
[10] = Gentisic Acid 1000 μg, IRE 17.1 mCi, 1 mL, pH 5.08
[11] = Gentisic Acid 1000 μg, ITG 30.9 mCi, 4 mL, pH 4.87
[12] = final formulation kit at Release, E&Z 15.65 mCi, 5 mL, pH 3.75
[13] = final formulation kit at Release, E&Z 16.80 mCi, 5 mL, pH 3.75
[14] = final formulation kit at Release, IRE 32.27 mCi, 1 mL, pH 4.95
[15] = final formulation kit at Release, IRE 32.95 mCi, 1 mL, pH 5.07
[16] = final formulation kit at Release, ITG 29.74 mCi, 4 mL, pH 4.67
[17] = final formulation kit at Release, ITG 30.90 mCi, 4 mL, pH 4.67
[18] = kit stored 3 months at 2-8° C., IRE 25.76 mCi, 1 mL, pH 5.29
[19] = kit stored 3 months at 25° C., IRE 24.56 mCi, 1 mL, pH 5.16
[20] = kit stored 3 months at 40° C., IRE 24.86 mCi, 1 mL, pH 5.23
[21] = kit stored 6 months at 2-8° C., IRE 19.90 mCi, 1 mL, pH 5.13
[22] = kit stored 6 months at 25° C., IRE 18.88 mCi, 1 mL, pH 5.09
[23] = kit stored 6 months at 40° C., IRE 19.34 mCi, 1 mL, pH 5.15

Q: For ^68Ga-PSMA-11 [[^68Ga] Gallium PSMA-11], which “time for which the radiolabelled product is stable with high radiochemical purity” value (400 μg Gentisic Acid) is on record?
A: The value was “up to 4 hours”.

Q: And the “[^68Ga] Gallium PSMA-11 (sum of stereosiomers), HPLC” value [1]?
A: Its value is 92.71%.

Q: And the “[^68Ga] Gallium free, HPLC” value [1]?
A: Its value is 0.15%.

Q: And the “[^68Ga] Gallium main degradant, HPLC” value [1]?
A: Its value is 6.61%.

Q: And the “[^68Ga] Gallium PSMA-11 (sum of stereosiomers), HPLC” value [2]?
A: Its value is 97.76%.

Q: What about the “[^68Ga] Gallium free, HPLC” value [2] of the same substance?
A: The value was 0.00%.

Q: And the “[^68Ga] Gallium main degradant, HPLC” value [2]?
A: Its value is 1.83%.

Q: And the “[^68Ga] Gallium PSMA-11 (sum of stereosiomers), HPLC” value [3]?
A: The value was 98.46%.

Q: What about the “[^68Ga] Gallium free, HPLC” value [3] of the same substance?
A: Its value is 0.00%.

Q: And the “[^68Ga] Gallium main degradant, HPLC” value [3]?
A: The value was 1.21%.

Q: What about the “[^68Ga] Gallium PSMA-11 (sum of stereosiomers), HPLC” value [4] of the same substance?
A: Its value is 99.56%.

Q: What about the “[^68Ga] Gallium free, HPLC” value [4] of the same substance?
A: Its value is 0.00%.

Q: And the “[^68Ga] Gallium main degradant, HPLC” value [4]?
A: Its value is 0.19%.

Q: And the “[^68Ga] Gallium PSMA-11 (sum of stereosiomers), HPLC” value [5]?
A: The value was 99.29%.

Q: And the “[^68Ga] Gallium free, HPLC” value [5]?
A: The value was 0.00%.

Q: And the “[^68Ga] Gallium main degradant, HPLC” value [5]?
A: Its value is 0.71%.

Q: And the “[^68Ga] Gallium PSMA-11 (sum of stereosiomers), HPLC” value [6]?
A: The value was 98.88%.

Q: And the “[^68Ga] Gallium free, HPLC” value [6]?
A: The value was 0.12%.

Q: And the “[^68Ga] Gallium main degradant, HPLC” value [6]?
A: The value was 1.00%.

Q: What about the “[^68Ga] Gallium PSMA-11 (sum of stereosiomers), HPLC” value [7] of the same substance?
A: Its value is 99.16%.

Q: And the “[^68Ga] Gallium free, HPLC” value [7]?
A: The value was 0.08%.

Q: And the “[^68Ga] Gallium main degradant, HPLC” value [7]?
A: The value was 0.19%.

Q: And the “[^68Ga] Gallium PSMA-11 (sum of stereosiomers), HPLC” value [8]?
A: Its value is 99.35%.

Q: What about the “[^68Ga] Gallium free, HPLC” value [8] of the same substance?
A: The value was 0.00%.

Q: What about the “[^68Ga] Gallium main degradant, HPLC” value [8] of the same substance?
A: The value was 0.16%.

Q: And the “[^68Ga] Gallium PSMA-11 (sum of stereosiomers), HPLC” value [9]?
A: Its value is 99.87%.

Q: What about the “[^68Ga] Gallium free, HPLC” value [9] of the same substance?
A: The value was 0.00%.

Q: What about the “[^68Ga] Gallium main degradant, HPLC” value [9] of the same substance?
A: Its value is 0.00%.

Q: And the “[^68Ga] Gallium PSMA-11 (sum of stereosiomers), HPLC” value [10]?
A: The value was 99.67%.

Q: And the “[^68Ga] Gallium free, HPLC” value [10]?
A: Its value is 0.00%.

Q: And the “[^68Ga] Gallium main degradant, HPLC” value [10]?
A: Its value is 0.33%.

Q: And the “[^68Ga] Gallium PSMA-11 (sum of stereosiomers), HPLC” value [11]?
A: Its value is 99.80%.

Q: What about the “[^68Ga] Gallium free, HPLC” value [11] of the same substance?
A: Its value is 0.01%.

Q: And the “[^68Ga] Gallium main degradant, HPLC” value [11]?
A: Its value is 0.02%.

Q: And the “[^68Ga] Gallium PSMA-11 (sum of stereosiomers), HPLC” value [12]?
A: The value was 99.87%.

Q: And the “[^68Ga] Gallium free, HPLC” value [12]?
A: The value was 0.00%.

Q: What about the “[^68Ga] Gallium main degradant, HPLC” value [12] of the same substance?
A: The value was 0.00%.

Q: What about the “[^68Ga] Gallium PSMA-11 (sum of stereosiomers), HPLC” value [13] of the same substance?
A: Its value is 99.68%.

Q: What about the “[^68Ga] Gallium free, HPLC” value [13] of the same substance?
A: The value was 0.00%.

Q: What about the “[^68Ga] Gallium main degradant, HPLC” value [13] of the same substance?
A: The value was 0.19%.

Q: And the “[^68Ga] Gallium PSMA-11 (sum of stereosiomers), HPLC” value [14]?
A: Its value is 99.58%.

Q: And the “[^68Ga] Gallium free, HPLC” value [14]?
A: The value was 0.00%.

Q: What about the “[^68Ga] Gallium main degradant, HPLC” value [14] of the same substance?
A: The value was 0.00%.

Q: And the “[^68Ga] Gallium PSMA-11 (sum of stereosiomers), HPLC” value [15]?
A: Its value is 99.66%.

Q: What about the “[^68Ga] Gallium free, HPLC” value [15] of the same substance?
A: Its value is 0.00%.

Q: What about the “[^68Ga] Gallium main degradant, HPLC” value [15] of the same substance?
A: The value was 0.23%.

Q: And the “[^68Ga] Gallium PSMA-11 (sum of stereosiomers), HPLC” value [16]?
A: The value was 99.81%.

Q: What about the “[^68Ga] Gallium free, HPLC” value [16] of the same substance?
A: Its value is 0.00%.

Q: What about the “[^68Ga] Gallium main degradant, HPLC” value [16] of the same substance?
A: The value was 0.05%.

Q: And the “[^68Ga] Gallium PSMA-11 (sum of stereosiomers), HPLC” value [17]?
A: The value was 98.80%.

Q: And the “[^68Ga] Gallium free, HPLC” value [17]?
A: The value was 0.01%.

Q: And the “[^68Ga] Gallium main degradant, HPLC” value [17]?
A: The value was 0.02%.

Q: What about the “[^68Ga] Gallium PSMA-11 (sum of stereosiomers), HPLC” value [18] of the same substance?
A: Its value is 99.28%.

Q: What about the “[^68Ga] Gallium free, HPLC” value [18] of the same substance?
A: The value was 0.04%.

Q: What about the “[^68Ga] Gallium main degradant, HPLC” value [18] of the same substance?
A: Its value is 0.55%.

Q: What about the “[^68Ga] Gallium PSMA-11 (sum of stereosiomers), HPLC” value [19] of the same substance?
A: The value was 99.22%.

Q: And the “[^68Ga] Gallium free, HPLC” value [19]?
A: Its value is 0.05%.

Q: And the “[^68Ga] Gallium main degradant, HPLC” value [19]?
A: The value was 0.19%.

Q: And the “[^68Ga] Gallium PSMA-11 (sum of stereosiomers), HPLC” value [20]?
A: The value was 98.92%.

Q: And the “[^68Ga] Gallium free, HPLC” value [20]?
A: The value was 0.07%.

Q: What about the “[^68Ga] Gallium main degradant, HPLC” value [20] of the same substance?
A: Its value is 0.26%.

Q: And the “[^68Ga] Gallium PSMA-11 (sum of stereosiomers), HPLC” value [21]?
A: The value was 99.40%.

Q: What about the “[^68Ga] Gallium free, HPLC” value [21] of the same substance?
A: The value was 0.00%.

Q: What about the “[^68Ga] Gallium main degradant, HPLC” value [21] of the same substance?
A: Its value is 0.47%.

Q: What about the “[^68Ga] Gallium PSMA-11 (sum of stereosiomers), HPLC” value [22] of the same substance?
A: The value was 99.32%.

Q: And the “[^68Ga] Gallium free, HPLC” value [22]?
A: Its value is 0.00%.

Q: What about the “[^68Ga] Gallium main degradant, HPLC” value [22] of the same substance?
A: Its value is 0.42%.

Q: What about the “[^68Ga] Gallium PSMA-11 (sum of stereosiomers), HPLC” value [23] of the same substance?
A: The value was 99.21%.

Q: And the “[^68Ga] Gallium free, HPLC” value [23]?
A: The value was 0.04%.
